# According to patent US20110195910A1, “USE OF TOCOTRIENOL COMPOSITION FOR THE PREVENTION OF CANCER” (DAVOS LIFE SCIENCE PTE. LTD., priority 2008, published 2011):
# What was measured:
# MDA-MB-231 cells = assay: Matrigel-invasion assay, MDA-MB-231 cells; type: cell-based, human; conditions: MDA-MB-231, 24 hrs
# Procedure: 1.1.4 Matrigel-invasion assay—Matrigel-invasion assay was performed according to a previously published method with modifications. Briefly, cells were pre-incubated in a serum-free RPMI 1640 medium with or without γ-T3 isomers for 24 hrs. Cells (2.5×10^5) resuspended in 500 μl of serum-free RPMI 1640 containing 0.1% bovine serum albumin (BSA) were then added to the upper chamber of a 8 μm pore size insert (Millipore, Bedford, Mass.) manually coated with Matrigel (0.5 mg/ml) (BD Bioscience, Bedford, Mass.). Five hundred μl of invasion buffer containing fibronectin (10 μg/ml) and RPMI 1640 supplemented with 10% FCS were added in the lower chamber as a chemo-attractant. Cells were incubated at 37° C. for 24 hrs in 5% CO2 humidified conditions. At the end of incubation period, inserts were stained with Diff-Quick staining solution (Fischer Scientific). Non-invaded cells on the inside of the insert were scraped off with a cotton swab. Cell invasions were then examined by a phase-contrast microscope. The invaded cells were extracted using extraction buffer (Millipore, Bedford, Mass.) and the cell number was estimated based on absorbance at 595 nm.
# 3.1.7 Flow cytometry was carried out as described above under item 1.1.3. Matrigel-invasion assay was carried out as described above under item 1.1.4. Western blotting was carried out as described above under item 1.1.5.
# [1] = Serum-based toxicity assay; type: in vivo, C57BL/6 black mice; conditions: 5 dose i.p. injections per week containing 1 mg
# Procedure: 4.1.8 Serum-based toxicity assay—Ten C57BL/6 black mice were given 5 dose intraperitoneal (i.p) injections per week containing 1 mg of γ-tocotrienol or DMSO blank. Mice were sacrificed by cardiac bleeding and the serum was extracted by method described above. Serum level of the biomarkers albumin, creatine, alanine transaminase ALT, aspartate aminotransferase AST, urea and alkaline phosphatase ALP were then measured by the colorimetric-based detection kits purchased from RANDOX laboratories Ltd. (Crumlin, United Kingdom).
# [2] = tested on: PCa tumors (PC-3-Luc xenograft); assay: Immunohistochemistry of xenograft tumor tissues; design: species or system BALB/c athymic nude mice; conditions: mouse, in vivo
# Procedure: 4.1.9 Immunohistochemistry—Tumor, liver, kidney, spleen, lung and heart of mice were fixed in 10% neutral buffered formalin for 12 h. After fixation, the tissue samples were processed into paraffin blocks. Tissue sections were cut at a thickness of 5 using Kedee microtome (China JINHUA Kedi Co., Ltd, Zhejiang, China), then deparaffinized in toluene and rehydrated from graded of alcohols to distilled water. Endogenous peroxidase activity was blocked by treating the sections with 0.6% hydrogen peroxide in methanol for 20 min, followed by antigen retrieval treatment. (Dako, Glostrup, Denmark). The sections were then incubated with peroxidase blocking solution (Dako, Glostrup, Denmark) for 1 h at 37° C. to remove any nonspecific antigens. The specimens were incubated overnight at 4° C. with primary rabbit polyclonal antibody against Snail (1:200), Id1 (1:250) (Abcam, Cambridge, UK), cleaved caspase-3 and cleaved PARP (1:50; Cell Signalling Technology, Inc., Beverly, Mass., USA) and mouse monoclonal antibody against proliferating cell nuclear antigen (PCNA), Ki-67, E-cadherin (1:50; Santa Cruz Biotechnology, Santa Cruz, Calif., USA). After several rinse in TBS, the sections were incubated with Dako REALT EnVisionT/HRP, Rabbit/Mouse solution for 1 h at 37° C. The reaction was visualized by Dako REALT DAB^+ chromogen. Mayer's haematoxylin (Dako, Glostrup, Denmark) was used as counter stain. Standard inverted light microscopy (Nikon, Tokyo, Japan) was used to analyze the slides.
# PC-3 cells = assay: CSC marker and signalling expression in PC-3 cells (western blotting, flow cytometry, RT-PCR); type: cell-based
# Procedure: (§1) 5.1.5 Western blotting was carried out as described above under 1.1.5. The membrane was incubated with primary antibodies directed against CD133 (Miltenyi Biotec, Auburn, Calif.), Bcl-2, PARP, cleaved caspase 3, 7, 9 (Cell Signaling, Technology Inc, Beverly, Mass.), CD44 and β-actin (Santa Cruz Biotechnology, Santa Cruz, Calif.). After washing with TBS-T, the membrane was incubated with secondary antibody against either mouse or rabbit IgG and the signals were visualized using ECL plus western blotting system (Amersham, Piscataway, N.J.).
# 5.1.6 Semi-quantitative RT-PCR—Total RNA was isolated using TRIZOL® reagent (Invitrogen, Carlsbad, Calif.) following the manufacturer's instruction. cDNA was synthesized by using SuperScript First-Strand Synthesis System for RT (Invitrogen, Carlsbad, Calif.) and PCR was carried out with GeneAmp® PCR System 9700 (Applied Biosystems, Foster City, Calif.). The primers sequence and PCR condition for RT-PCR of CD133 were previously described. The amounts of mRNA were quantified relative to GAPDH.
# 5.1.8 Flow cytometry—Flow cytometry analysis of the CD44 positive cells were performed with procedure known in the art. Briefly, cells were incubated in PBS containing 2% FBS with PE-conjugated anti-human CD44 antibody. Isotype-matched mouse immunoglobulins served as controls. Samples were then analyzed using a FACS Calibur flow cytometer and CellQuest software (BD Biosciences, San Jose, Calif., USA).
# MGH-U1 cells = assay: Western blotting of CD44, MGH-U1 cells; type: cell-based; conditions: bladder cancer cells
# Procedure: as §1
smiles,measurement,setting,value
"CC(C)=CCC/C(C)=C/CC/C(C)=C/CCC1(C)CCc2cc(O)c(C)c(C)c2O1 (stereo not drawn) [γ-T3, 7,8-dimethyltocotrienol]",invasion capability compared to untreated control,MDA-MB-231 cells,at least 2 -time lower
same,"toxicological changes in serum parameters (Alb, Cre, ALT, AST, Ure, ALP)",[1],no toxicological changes
same,E-cadherin expression in tumor sections,[2],up-regulated
same,Snail expression in tumor sections,[2],down-regulated
same,"level of PCNA, Ki67 and Id-1 in tumors",[2],downregulated
same,level of cleaved caspase 3 and PARP in tumors,[2],induced
same,population of CD44+ PC-3 cells (flow cytometry),"PC-3 cells; 5 μg/ml, 24 hrs",found to decrease
same,CD133 mRNA level,"PC-3 cells; 2.5 and 5 μg/ml, 48 and 72 hrs",decrease of CD133 mRNA
same,protein expression of CD44 (CD133 similar),"PC-3 cells; PC-3, 2.5 & 5 μg/ml, 24, 48 and 72 hours",significantly down regulated
same,expression of AKT,"PC-3 cells; low dose, 0 to about 5 μg/ml",downregulated
same,expression of Oct3/4 and Nestin,"PC-3 cells; low dose, 0 to about 5 μg/ml",upregulated
same,CD44 expression,MGH-U1 cells,downregulate CD44 expression
